The source of these data is patent US10294234B2, “HIV inhibitor compounds” (priority 2017, dated 2019).

The subject of series [1] is HIV-1 (IIIB) in MT-4 cells. In words: MT-4 HIV assay. In kind it is cell-based. Particulars: Human immunodeficiency virus 1, MT4, 120 h; HIV-1 (IIIB), MT-4 cells, 5 days, Cell Titer Glo; read-out: EC50. The method, boiled down: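 Antiviral activity was read by Cell Titer Glo after a 5-day, 37 °C culture of MT-4 cells pre-infected with a 1:250 dilution of HIV-1 (IIIB). Compounds were tested as threefold dilution series in complete RPMI. Controls were no drug, mock infection and 5 uM AZT.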
In general terms: In ATP-based viability assays light output follows the ATP content of the culture.

For series [2] the following is noted: microsomes. The procedure:
Liver Microsomal Stability Protocol
Test compounds and one control compound (verapamil) were tested in 3 different species in duplicate sets.
Test compound concentration: 1 uM; Protein concentration: 0.5 mg/mL (for dog, rat, and human liver microsomes); Cofactor: NADPH-Regenerating system (NRS) solution; Time-points: 2, 12, 25, 45, and 65 minutes.
Reaction composition (in each incubation well) contains:
After plates were vortexed, they were centrifuged for 30 minutes to remove proteins. About 100 μL supernatant was removed to a new plate and diluted with 150 μL water. About 20 μL of the mixture was injected into LC/MS/MS system to monitor the compound's response. In vitro measured t1/2 was used to calculate Clint values.

Usually EC50 stands for the concentration giving half of the maximal effect. Turning to `COC(=O)N[C@H](C(=O)N[C@@H](Cc1ccc(C#Cc2ccc(N3CC4CCC(C3)N4C3COC3)nc2)cc1)[C@@H](O)CN(Cc1c(F)cc(-c2ccc(F)cn2)cc1F)NC(=O)[C@@H](NC(=O)OC)C(C)(C)C(F)(F)F)C(C)(C)C(F)(F)F` [Example 102, Methyl ((5S,8S,9S,14S)-11-(2,6-difluoro-4-(5-fluoropyridin-2-yl)benzyl)-16,16,16-trifluoro-9-hydroxy-15,15-dimethyl-8-(4-((6-(8-(oxetan-3-yl)-3,8-diazabicyclo [3.2.1]octan-3-yl)pyridin-3-yl)ethynyl)benzyl)-3,6,13-trioxo-5-(1,1,1-trifluoro-2-methylpropan-2-yl)-2-oxa-4,7,11,12-tetraazahexadecan-14-yl)carbamate], the EC50 in series [1] worked out at 5.68 nM. In addition, the “Human Pred Cl.” value in series [2] (human) is on record as 0.18 L/H/kg. In addition, the “Rat. Pred. Cl.” value in series [2] (rat) is recorded as under 0.18 L/H/kg.

As for `CCN1C2CCC1CN(c1ccc(C#Cc3ccc(C[C@H](NC(=O)[C@@H](NC(=O)OC)C(C)(C)C(F)(F)F)[C@@H](O)CN(Cc4c(F)cc(-c5ccccn5)cc4F)NC(=O)[C@@H](NC(=O)OC)C(C)(C)C(F)(F)F)cc3)cn1)C2` [Example 241, methyl ((5S,8S,9S,14S)-11-(2,6-difluoro-4-(pyridin-2-yl)benzyl)-8-(4-((6-(8-ethyl-3,8-diazabicyclo[3.2.1]octan-3-yl)pyridin-3-yl)ethynyl)benzyl)-16,16,16-trifluoro-9-hydroxy-15,15-dimethyl-3,6,13-trioxo-5-(1,1,1-trifluoro-2-methylpropan-2-yl)-2-oxa-4,7,11,12-tetraazahexadecan-14-yl)carbamate], the EC50 in series [1] came out at 6.57 nM.

Consider `CC(C)([C@H](NC(=O)C1CC1)C(=O)N[C@@H](Cc1ccc(-c2cnn(C(F)F)c2)cc1)[C@@H](O)CN(Cc1c(F)cc(-c2ccn(C(F)F)n2)cc1F)NC(=O)[C@@H](NC(=O)C1CC1)C(C)(C)C(F)(F)F)C(F)(F)F` [Example 213, N—((S)-1-(2-((2S,3S)-3-((S)-2-(cyclopropanecarboxamido)-4,4,4-trifluoro-3,3-dimethylbutanamido)-4-(4-(1-(difluoromethyl)-1H-pyrazol-4-yl)phenyl)-2-hydroxybutyl)-2-(4-(1-(difluoromethyl)-1H-pyrazol-3-yl)-2,6-difluorobenzyl)hydrazinyl)-4,4,4-trifluoro-3,3-dimethyl-1-oxobutan-2-yl)cyclopropanecarboxamide], for which the EC50 in series [1] is 4.86 nM.

Regarding `COC(=O)N[C@H](C(=O)N[C@@H](Cc1ccc(C#Cc2cnc(N3CC4CCC(C3)N4C3COC3)nc2)cc1)[C@@H](O)CN(Cc1ccc(-c2ccn(C3CC3)n2)cc1)NC(=O)[C@@H](NC(=O)OC)C(C)(C)C(F)(F)F)C(C)(C)C(F)(F)F` [Example 33, Methyl ((5S,8S,9S,14S)-11-(4-(1-cyclopropyl-1H-pyrazol-3-yl)benzyl)-16,16,16-trifluoro-9-hydroxy-15,15-dimethyl-8-(4-((2-(8-(oxetan-3-yl)-3,8-diazabicyclo [3.2.1]octan-3-yl)pyrimidin-5-yl)ethynyl)benzyl)-3,6,13-trioxo-5-(1,1,1-trifluoro-2-methylpropan-2-yl)-2-oxa-4,7,11,12-tetraazahexadecan-14-yl)carbamate], the EC50 in series [1] came out at 4.71 nM.

As to `COC(=O)N[C@H](C(=O)N[C@@H](Cc1ccc(C#Cc2cnc(N3CC4CCC(C3)N4)nc2)cc1)[C@@H](O)CN(Cc1c(F)cc(-c2ccn(C(F)F)n2)cc1F)NC(=O)[C@@H](NC(=O)OC)C(C)(C)C(F)(F)F)C(C)(C)C(F)(F)F` [Example 172, Methyl ((5S,8S,9S,14S)-8-(4-((2-(3,8-diazabicyclo[3.2.1]octan-3-yl)pyrimidin-5-yl)ethynyl)benzyl)-11-(4-(1-(difluoromethyl)-1H-pyrazol-3-yl)-2,6-difluorobenzyl)-16,16,16-trifluoro-9-hydroxy-15,15-dimethyl-3,6,13-trioxo-5-(1,1,1-trifluoro-2-methylpropan-2-yl)-2-oxa-4,7,11,12-tetraazahexadecan-14-yl)carbamate], the EC50 in series [1] is 5.86 nM.

Consider `COC(=O)N[C@H](C(=O)N[C@@H](Cc1ccc(C#Cc2ccc(N3CC4CCC(C3)N4c3ncccn3)nc2)cc1)[C@@H](O)CN(Cc1c(F)cc(-c2ccn(C)n2)cc1F)NC(=O)[C@@H](NC(=O)OC)C(C)(C)C)C(C)(C)C` [Example 226], for which, in series [1], the concentration giving a half-maximal response (EC50) was found to be 14.9 nM.

For the molecule `COC(=O)N[C@H](C(=O)N[C@@H](Cc1ccc(-c2cnc(N3CC4CCC(C3)N4C3COC3)nc2)cc1)[C@@H](O)CN(Cc1c(F)cc(-c2cn(C(F)F)cn2)cc1F)NC(=O)[C@@H](NC(=O)OC)C(C)(C)C(F)(F)F)C(C)(C)C(F)(F)F` [Example 189, Methyl ((5S,8S,9S,14S)-11-(4-(1-(difluoromethyl)-1H-imidazol-4-yl)-2,6-difluorobenzyl)-16,16,16-trifluoro-9-hydroxy-15,15-dimethyl-8-(4-(2-(8-(oxetan-3-yl)-3,8-diazabicyclo[3.2.1]octan-3-yl)pyrimidin-5-yl)benzyl)-3,6,13-trioxo-5-(1,1,1-trifluoro-2-methylpropan-2-yl)-2-oxa-4,7,11,12-tetraazahexadecan-14-yl)carbamate], the EC50 in series [1] worked out at 5.47 nM.

Consider `COC(=O)N[C@H](C(=O)N[C@@H](Cc1ccc(C#Cc2ccc(N3CC4CC(C3)N4C3COC3)nc2)cc1)[C@@H](O)CN(Cc1c(F)cc(-c2ccn(CC(F)F)n2)cc1F)NC(=O)[C@@H](NC(=O)OC)C(C)(C)C(F)(F)F)C(C)(C)C(F)(F)F` [Example 41, Methyl ((5S,8S,9S,14S)-11-(4-(1-(2,2-difluoroethyl)-1H-pyrazol-3-yl)-2,6-difluorobenzyl)-16,16,16-trifluoro-9-hydroxy-15,15-dimethyl-8-(4-((6-(6-(oxetan-3-yl)-3,6-diazabicyclo[3.1.1]heptan-3-yl)pyridin-3-yl)ethynyl)benzyl)-3,6,13-trioxo-5-(1,1,1-trifluoro-2-methylpropan-2-yl)-2-oxa-4,7,11,12-tetraazahexadecan-14-yl)carbamate], for which the half-maximal effective concentration (EC50) in series [1] came to 3.58 nM.

With `COC(=O)N[C@H](C(=O)N[C@@H](Cc1ccc(C#Cc2cnc(N3CC4CC(C3)N4C3COC3)nc2)cc1)[C@@H](O)CN(Cc1c(F)cc(-c2ccn(C(F)F)n2)cc1F)NC(=O)[C@@H](NC(=O)OC)C(C)(C)C(F)(F)F)C(C)(C)C(F)(F)F` [Example 42, Methyl ((5S,8S,9S,14S)-11-(4-(1-(difluoromethyl)-1H-pyrazol-3-yl)-2,6-difluorobenzyl)-16,16,16-trifluoro-9-hydroxy-15,15-dimethyl-8-(4-((2-(6-(oxetan-3-yl)-3,6-diazabicyclo[3.1.1]heptan-3-yl)pyrimidin-5-yl)ethynyl)benzyl)-3,6,13-trioxo-5-(1,1,1-trifluoro-2-methylpropan-2-yl)-2-oxa-4,7,11,12-tetraazahexadecan-14-yl)carbamate], the half-maximal effective concentration (EC50) in series [1] was 3.18 nM.

`COC(=O)N[C@H](C(=O)N[C@@H](Cc1ccc(C#Cc2ccc(N3CC4CCC(C3)N4C(C)C)nc2)cc1)[C@@H](O)CN(Cc1c(F)cc(-c2cnn(C(F)F)c2)cc1F)NC(=O)[C@@H](NC(=O)OC)C(C)(C)C(F)(F)F)C(C)(C)C(F)(F)F` [Example 166, Methyl ((5S,8S,9S,14S)-11-(4-(1-(difluoromethyl)-1H-pyrazol-4-yl)-2,6-difluorobenzyl)-16,16,16-trifluoro-9-hydroxy-8-(4-((6-(8-isopropyl-3,8-diazabicyclo[3.2.1]octan-3-yl)pyridin-3-yl)ethynyl)benzyl)-15,15-dimethyl-3,6,13-trioxo-5-(1,1,1-trifluoro-2-methylpropan-2-yl)-2-oxa-4,7,11,12-tetraazahexadecan-14-yl)carbamate]: in series [1], the EC50 worked out at 7.06 nM.

For `COC(=O)N[C@H](C(=O)N[C@@H](Cc1ccc(C#Cc2ccc(N3CC4CCC(C3)N4C(=O)C3(C)COC3)nc2)cc1)[C@@H](O)CN(Cc1c(F)cc(-c2ccn(C)n2)cc1F)NC(=O)[C@@H](NC(=O)OC)C(C)(C)C)C(C)(C)C` [Example 4], the EC50 in series [1] worked out at 2.82 nM.

As for `CC(C)([C@H](NC(=O)OC1CC1)C(=O)N[C@@H](Cc1ccc(C#Cc2ccc(N3CC4CCC(C3)N4C3COC3)nc2)cc1)[C@@H](O)CN(Cc1c(F)cc(-c2ccn(C(F)F)n2)cc1F)NC(=O)[C@@H](NC(=O)OC1CC1)C(C)(C)C(F)(F)F)C(F)(F)F` [Example 156, Cyclopropyl ((2S)-1-(2-((2S,3S)-3-((S)-2-((cyclopropoxycarbonyl)amino)-4,4,4-trifluoro-3,3-dimethylbutanamido)-2-hydroxy-4-(4-((6-(8-(oxetan-3-yl)-3,8-diazabicyclo[3.2.1]octan-3-yl)pyridin-3-yl)ethynyl)phenyl)butyl)-2-(4-(1-(difluoromethyl)-1H-pyrazol-3-yl)-2,6-difluorobenzyl)hydrazinyl)-4,4,4-trifluoro-3,3-dimethyl-1-oxobutan-2-yl)carbamate], the EC50 in series [1] was 17 nM.

Regarding `COC(=O)N[C@H](C(=O)NN(Cc1c(F)cc(-c2cn(C(F)F)cn2)cc1F)C[C@H](O)[C@H](Cc1ccc(C#Cc2cnc(N3CC4CCC(C3)N4C3COC3)nc2)cc1)NC(=O)[C@@H](NC(=O)OC)C(C)(C)C(F)(F)F)C(C)(C)C` [Example 2, Methyl ((5S,8S,9S,14S)-11-(4-(1-(difluoromethyl)-1H-imidazol-4-yl)-2,6-difluorobenzyl)-9-hydroxy-15,15-dimethyl-8-(4-((2-(8-(oxetan-3-yl)-3,8-diazabicyclo[3.2.1]octan-3-yl)pyrimidin-5-yl)ethynyl)benzyl)-3,6,13-trioxo-5-(1,1,1-trifluoro-2-methylpropan-2-yl)-2-oxa-4,7,11,12-tetraazahexadecan-14-yl)carbamate], the EC50 in series [1] is 2.64 nM.
